“Also recorded” adds a separate entry of the source. Like-named read-outs stand apart in the source and are kept apart here. Values belong to the molecule of their own block, whether it stands above or below them.
Key:
C3 convertases = conditions: mice and dogs; cited from earlier work
rat C3 = test: In vivo C3 opsonization of SPIO NWs in rats; parameters: species or system Sprague-Dawley rats; conditions: high dose iptacopan 0.99 mg/kg, 60 min postinjection
[1] = system: granulocytes, monocytes, lymphocytes; test: Blood leukocyte uptake of bolus-injected SPIO NWs in mice; type: in vivo, BALB/c mice
C3 [2] = type: biochemical, human; conditions: for inhibition of C3 opsonization of PLD, in words: two donors with top 10th percentile anti-PEG IgG/IgM, EGTA/Mg2+ 10 mM
[3] = system: granulocytes and monocytes; type: cell-based, human; conditions: CR2-CR1 10 nM, iptacopan 20 μM; for efficacy on uptake across donors, in words: liposomes and LNPs, five donors
Sprague-Dawley rats = test: Rearing behavior of rats after bolus injection of SPIO NWs; type: in vivo
C3 [4] = test: C3 opsonization of SPIO NWs in dog sera in vitro; type: biochemical; conditions: 10 μM, five breeds
mouse C3 = test: In vivo C3 opsonization of SPIO NWs in mice; parameters: species or system BALB/c mice; conditions: IV iptacopan, 5 min after the injection
granulocytes = test: Blood leukocyte uptake of bolus-injected SPIO NWs in dogs; type: in vivo; conditions: Beagle dogs; iptacopan 0.43 mg/kg IV coinjected with SPIO NWs 6.6 mg/kg; 30 and 60 min
C3d = C3d deposition on PLD in plasma of donors with high anti-PEG titers; type: biochemical, human; conditions: two donors with high anti-PEG titers; EDTA 10 mM; EGTA/Mg2+ 10 mM; sutimlimab 200 μg/ml; iptacopan 10 μM
blood leukocytes = test: Blood leukocyte uptake of bolus-injected SPIO NWs in rats; type: in vivo, Sprague-Dawley rats
Beagle dogs = test: Blood pressure in anesthetized dogs after bolus injection of SPIO NWs; type: in vivo; conditions: iptacopan IV 0.4285 mg/kg
dog C3 = test: In vivo C3 opsonization of SPIO NWs in dogs; conditions: Beagle dogs; iptacopan 0.43 mg/kg IV; 30 min postinjection
C3 [5] = test: C3 opsonization of SPIO NWs in rat serum in vitro; type: biochemical, Sprague-Dawley rats; conditions: 100 μM
C3 [6] = test: C3 opsonization of SPIO NWs in mouse serum in vitro; type: biochemical, BALB/c mice
human C3 deposition = test: C3 deposition on nanoparticles in human serum, C3 dot-blot immunoassay; type: biochemical; conditions: for IC50: read-out: C3, IC50, healthy donor serum
human C5a release = test: C5a release in the fluid phase of human serum with nanoparticles, ELISA; type: biochemical; conditions: for inhibition of C5a release: 100 μM; for IC50: read-out: C5a, IC50
C4d = C4d deposition on PLD in plasma of donors with high anti-PEG titers; type: biochemical, human; conditions: two donors with high anti-PEG titers; EGTA/Mg2+ 10 mM; sutimlimab 200 μg/ml
[7] = EDTA 10 mM, sutimlimab 200 μg/ml, iptacopan 10 μM

Molecule: CR1: human complement receptor 1 (soluble CR1 therapeutics)
efficacy in animal species (C3 convertases): not effective

Molecule: CCO[C@H]1CCN(Cc2c(OC)cc(C)c3[nH]ccc23)[C@H](c2ccc(C(=O)O)cc2)C1 [Iptacopan, iptacopan]
rat C3 opsonization of NWs blocked (rat C3): more than 90%
iptacopan administered intraperitoneally compared with IV ([1]; IP before SPIO NWs): equally effective
inhibition of uptake of SPIO NWs by monocytes and lymphocytes ([1]; iptacopan with NWs 10 mg Fe/kg): partial inhibition
inhibition of C3 opsonization of PLD, in words (C3 [2]; [7]): marginally effective
inhibition of C3 opsonization of PLD, in words (C3 [2]; EDTA 10 mM, sutimlimab 200 μg/ml, iptacopan 10 μM, listed as iptacopan): minimal inhibition
efficacy on uptake across donors, in words [3]: effective in some donors
efficacy on uptake across donors, in words ([3]; listed as iptacopan): effective in three of five donors
reduction of SPIO NWs uptake (number of magnetic cells) ([3]; the one donor with measurable uptake): ~ 60%
rearings after coinjection with NWs (Sprague-Dawley rats; low or high dose of iptacopan): significant increase in rearings; also recorded: significantly normalized rearing behavior
inhibition of C3 opsonization in dog sera (C3 [4]): significant inhibition
C3 opsonization of NWs retrieved from plasma (mouse C3): significantly decreased
number of magnetic granulocytes (granulocytes): significantly reduced
inhibition of C3d deposition on PLD, in words (C3d): only partial activity
inhibition of uptake by granulocytes (blood leukocytes; high-dose iptacopan 0.99 mg/kg, 60 min): significant inhibition
uptake of SPIO NWs by blood leukocytes (blood leukocytes; iptacopan IV 0.21 mg/kg (low dose) and 0.99 mg/kg (high dose) with SPIO NWs 6.6 mg/kg, 60 min postinjection): inhibited uptake
systolic and diastolic pressure after coinjection with SPIO NWs (Beagle dogs): prevents the drop in blood pressure; also recorded: restored
dog C3 opsonization in the blood (dog C3): significantly decreased

IC50 (human C5a release; CLIO NWs, human serum): 6.93 nM
IC50 (human C5a release; Onivyde, human serum): 2580 nM
IC50 (human C5a release; SPIO NWs, human serum): 6.97 nM
IC50 (human C5a release; mRNA LNPs, donor F38 (table line matched to Fig. 2C)): 1290 nM
IC50 (human C5a release; mRNA LNPs, donor F46 (table line matched to Fig. 2C)): 7980 nM
IC50 (human C5a release; mRNA LNPs, donor M61 (table line matched to Fig. 2C)): 71.2 nM
Molecule: CC(=O)c1nn(CC(=O)N2C[C@H](F)C[C@H]2C(=O)Nc2cccc(Br)n2)c2ccc(-c3cnc(C)nc3)cc12 [Danicopan, danicopan]
inhibition of C3 (C3 [5]): less than 50%
inhibition in mouse serum, in words (C3 [6]): poor inhibition
inhibition of C3 opsonization in dog sera (C3 [4]): considerably less effective
inhibition of C3 deposition (human C3 deposition; PLD, inhibitor at 100 μM, human serum): less than 50%
IC50 (human C3 deposition; CLIO NWs): 10.8 µM
IC50 (human C3 deposition; Onivyde): 28.1 µM
IC50 (human C3 deposition; SPIO NWs): 0.417 µM
inhibition of C5a release (human C5a release; mRNA LNPs, donor F46): less than 60%
inhibition of C5a release (human C5a release; mRNA LNPs, donors F38 and M61): completely inhibited
C5a IC50, in words (human C5a release; mRNA LNPs, sera from three healthy donors): low micromolar

Molecule: O=C(O)CN(CCN(CC(=O)O)CC(=O)O)CC(=O)O [EDTA]
C3 on PLD blocked, on average (C3 [2]; lepirudin plasma, 10 donors, CR2-CR1 10 nM, EDTA 10 mM): ~67%
inhibition of C3 opsonization of PLD, in words (C3 [2]; [7]): only partially inhibited
inhibition of C3d deposition on PLD, in words (C3d): full inhibition

Molecule: PMX53
rearing behavior after coinjection with NWs (Sprague-Dawley rats; PMX53 1 mg/kg IV, or 3 mg/kg IP + 1 mg/kg IV): did not restore; also recorded: not significantly increased

Molecule: EGTA/Mg^2+
inhibition of C3 opsonization of PLD, in words (C3 [2]; [7]): strong inhibition
inhibition of C3d deposition on PLD, in words (C3d): full inhibition
inhibition of C4d deposition on PLD, in words (C4d): inhibited

B1: Sutimlimab: monoclonal antibody that binds C1s; classical pathway inhibitor (antibody, chains of the INN, looked up, V domains shown)
VH: EVQLVESGGGLVKPGGSLRLSCAASGFTFSNYAMSWVRQAPGKGLEWVATISSGGSHTYYLDSVKGRFTISRDNSKNTLYLQMNSLRAEDTALYYCARLFTGYAMDYWGQGTLVTVSS
VL: QIVLTQSPATLSLSPGERATMSCTASSSVSSSYLHWYQQKPGKAPKLWIYSTSNLASGVPSRFSGSGSGTDYTLTISSLQPEDFATYYCHQYYRLPPITFGQGTKLEIK
inhibition of C3 deposition on PLD, in words (C3 [2]; lepirudin plasma, 10 donors, sutimlimab 200 μg/ml, iptacopan 10 μM): minimally effective
inhibition of C3 opsonization of PLD, in words (C3 [2]; [7]): marginal effectiveness; also recorded: minimal inhibition
inhibition of C3d deposition on PLD, in words (C3d): only partial activity
inhibition of C4d deposition on PLD, in words (C4d): does not inhibit

From PMC12239973 (Science Advances, 2025)
